Laboratory results from patent publication US6342604B1, “Substitute pyrimidine compounds and the use thereof” (BASF Aktiengesellschaft, priority 1994, dated 2002).
Where two headings read alike, the source gives them in different places.

Target: T1, human D3 receptor (Homo sapiens, UniProt P35462)
T1 construct: host or cells: CCL 1.3 mouse fibroblasts
Experiment: D3 receptor binding assay (125I-iodosulpiride displacement)
Details: for Selectivity Ki D2/Ki D3: ratio of Ki D2 (3H-spiperone) to Ki D3 (125I-sulpiride)
Procedure: Cloned human D3 receptor-expressing CCL 1.3 mouse fibroblasts obtained from Res. Biochemicals Internat. One Strathmore Rd., Natick, Mass.
After 48 h, the cells were washed with PBS and incubated with 0.05% trypsin-containing PBS for 5 min. Neutralization with medium was then carried out, and the cells were collected by centrifugation at 300 xg. To lyze the cells, the pellet was briefly washed with lysis buffer (5 mM tris-HCl, pH 7.4, with 10% glycerol) and then incubated in a concentration of 10^7 cells/ml of lysis buffer at 4° C. for 30 min. The cells were centrifuged at 200 xg for 10 min and the pellet was stored in liquid nitrogen.
The non-specific binding was determined using 10^−6 M spiperone.
After 60 min, the free and the bound radioligand was separated by filtration through GF/B glass fiber filters (Whatman, England) on a Skatron cell collector (Skatron, Lier, Norway), and the filters were washed with ice-cold tris-HCl buffer, pH 7.4. The radioactivity collected on the filters was quantified using a Packard 2200 CA liquid scintillation counter.
The Ki values were determined by non-linear regression analysis using the LIGAND program.

[1] = cloned human D3 receptor, CCL 1.3 mouse fibroblast membranes, 0.1 nM 125iodosulpiride, read-out: Receptor binding D3 125I-sulpiride Ki

T1 sequence (P35462 whole entry): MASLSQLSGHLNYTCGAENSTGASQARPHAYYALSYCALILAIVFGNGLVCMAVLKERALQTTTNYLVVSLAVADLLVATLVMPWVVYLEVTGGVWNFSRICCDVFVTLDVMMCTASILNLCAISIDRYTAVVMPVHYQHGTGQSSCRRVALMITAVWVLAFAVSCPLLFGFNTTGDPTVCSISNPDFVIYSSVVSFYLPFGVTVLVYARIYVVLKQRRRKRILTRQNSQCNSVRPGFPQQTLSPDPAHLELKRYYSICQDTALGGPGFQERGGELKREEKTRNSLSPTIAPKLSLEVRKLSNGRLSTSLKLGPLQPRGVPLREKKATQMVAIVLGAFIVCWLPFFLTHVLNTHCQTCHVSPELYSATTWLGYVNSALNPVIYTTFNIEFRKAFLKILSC

Structure (SMILES): CC(C)c1cccc(N2CCN(CCCSc3nccc(O)n3)CC2)c1 [Example 17]
- Ki [1]: 2.8 nM
- Selectivity Ki D2/Ki D3: 71

Structure (SMILES): Oc1ccnc(SCCCN2CCN(c3cccc(C(F)(F)F)c3)CC2)n1 [Example 12]
- Ki: 4.2 nM
- Selectivity Ki D2/Ki D3: 85

Structure (SMILES): Oc1ccnc(SC/C=C/CN2CCN(c3cccc(C(F)(F)F)c3)CC2)n1 [Example 13]
- Ki [1]: 2.3 nM
- Selectivity Ki D2/Ki D3: 61

Structure (SMILES): Oc1ccnc(SCCCN2CC=C(c3cccc(C(F)(F)F)c3)CC2)n1 [Example 19]
- Ki: 3 nM
- Selectivity Ki D2/Ki D3: 58
